Laboratory results reported in US20250099535A1, “GEPOTIDACIN AND VANCOMYCIN FOR USE IN THE TREATMENT OF AN INFECTION CAUSED BY STAPHYLOCOCCUS SAPROPHYTICUS” (GlaxoSmithKline Intellectual Property Development Limited, priority 2022, published 2025).
Values after ≈ are worked out from the molar mass of the structure shown. Read-outs that look alike come from different tables or passages of the source. Each block holds one compound with its values, some of them ahead of it.

How the values were obtained:
Format in all cases: cell-based
Enterococcus faecalis = assay: Baseline broth microdilution MIC (CLSI M07); conditions: for MIC: Enterococcus faecalis
Description: (§1) MIC values were determined in triplicate by Clinical and Laboratory Standards Institute (CLSI) […] (2018) reference broth microdilution (BMD) using cation adjusted Mueller Hinton broth (CAMHB) to determine a consensus median baseline MIC value for each isolate and compound. As required by CLSI M100 (2021), quality control (QC) strains Escherichia coli ATCC 25922, Pseudomonas aeruginosa ATCC 27853, Staphylococcus aureus 29213, and Enterococcus faecalis ATCC 29212 were tested concomitantly with the clinical isolates. (QC data not shown).

[1] = tested on: Staphylococcus saprophyticus; assay: Baseline broth microdilution MIC (CLSI M07)
Description: as §1

[2] = tested on: Staphylococcus saprophyticus; assay: Time-kill kinetic assay; conditions: 1× MIC, 5 S. saprophyticus isolates
Description: CAMHB was used for the follow-up time-kill kinetic studies. Each organism was tested in media containing either compound alone, or both, at ½×, ¼×, and 1× their respective MICs. Time-kill concentration tubes were sampled at time 0 hours (T0), T2, T4, T8, and T24. Samples were serially diluted ten-fold up to 8 times in tubes with […] of a 0.85% saline solution. A volume of 0.1 mL was then plated onto tryptic-soy agar with 5% sheep blood from the original sample and subsequent dilutions. Plates were incubated for 24 hours at 35° C. before quantifying the viable cell count for each tube at the specified times (T0-T24).
As described in the CLSI M26-A manual, bactericidal activity was defined as a 3-log10 decrease in CFU/mL below the starting inoculum that was maintained for 24 hours. […] The number of surviving organisms in the presence of the combination was required to be ≥2 log10 CFU/mL below the starting inocula and at least one of the drugs should not affect the growth curve of the tested organism.

MIC (Enterococcus faecalis; isolate E. faecalis 1097863, CAMHB, read-out: GEP MIC): 1 mg/L (≈ 2.23 µM)
MIC (Enterococcus faecalis; isolate E. faecalis 1103597, CAMHB, read-out: GEP MIC): 0.5 mg/L (≈ 1.11 µM)
MIC (Enterococcus faecalis; isolate E. faecalis 1103850, CAMHB, read-out: GEP MIC): 0.5 mg/L (≈ 1.11 µM)
MIC (Enterococcus faecalis; isolate E. faecalis 1111210, CAMHB, read-out: GEP MIC): 1 mg/L (≈ 2.23 µM)
MIC (Enterococcus faecalis; isolate E. faecalis 1124756, CAMHB, read-out: GEP MIC): 0.5 mg/L (≈ 1.11 µM)
MIC ([1]; isolate S. saprophyticus 1106006, CAMHB, read-out: GEP MIC): 0.25 mg/L (≈ 0.557 µM)
MIC ([1]; isolate S. saprophyticus 1113726, CAMHB, read-out: GEP MIC): 0.12 mg/L (≈ 0.268 µM)
MIC ([1]; isolate S. saprophyticus 1115244, CAMHB, read-out: GEP MIC): 0.12 mg/L (≈ 0.268 µM)
MIC ([1]; isolate S. saprophyticus 1125669, CAMHB, read-out: GEP MIC): 0.25 mg/L (≈ 0.557 µM)
MIC ([1]; isolate S. saprophyticus 1129086, CAMHB, read-out: GEP MIC): 0.25 mg/L (≈ 0.557 µM)
SMILES: O=c1ccc2ncc(=O)n3c2n1C[C@H]3CN1CCC(NCc2cc3c(cn2)OCCC3)CC1 [gepotidacin, (2R)-2-({4-[(3,4-dihydro-2H-pyrano[2,3-c]pyridin-6-ylmethyl)amino]-1-piperidinyl}methyl)-1,2-dihydro-3H,8H-2a,5,8a-triazaacenaphthylene-3,8-dione]
Bactericidal activity (3-log10 decrease in CFU/mL below the starting inoculum maintained for 24 hours) [2]: not achieved

SMILES: CN[C@H](CC(C)C)C(=O)N[C@H]1C(=O)N[C@@H](CC(N)=O)C(=O)N[C@H]2C(=O)N[C@H]3C(=O)N[C@H](C(=O)N[C@H](C(=O)O)c4cc(O)cc(O)c4-c4cc3ccc4O)[C@H](O)c3ccc(c(Cl)c3)Oc3cc2cc(c3O[C@@H]2O[C@H](CO)[C@@H](O)[C@H](O)[C@H]2O[C@H]2C[C@](C)(N)[C@H](O)[C@H](C)O2)Oc2ccc(cc2Cl)[C@H]1O [vancomycin]
MIC (Enterococcus faecalis; read-out: VANC MIC): 1 mg/L (≈ 0.69 µM)
VANC MIC (Enterococcus faecalis; isolate E. faecalis 1103597, CAMHB): 1 mg/L
VANC MIC (Enterococcus faecalis; isolate E. faecalis 1103850, CAMHB): 1 mg/L
VANC MIC (Enterococcus faecalis; isolate E. faecalis 1111210, CAMHB): 1 mg/L
VANC MIC (Enterococcus faecalis; isolate E. faecalis 1124756, CAMHB): 1 mg/L
MIC ([1]; read-out: VANC MIC, isolate S. saprophyticus 1106006, CAMHB): 0.5 mg/L (≈ 0.345 µM)
MIC ([1]; read-out: VANC MIC, isolate S. saprophyticus 1113726, CAMHB): 1 mg/L (≈ 0.69 µM)
MIC ([1]; read-out: VANC MIC, isolate S. saprophyticus 1115244, CAMHB): 1 mg/L (≈ 0.69 µM)
MIC ([1]; read-out: VANC MIC, isolate S. saprophyticus 1125669, CAMHB): 1 mg/L (≈ 0.69 µM)
MIC ([1]; read-out: VANC MIC, isolate S. saprophyticus 1129086, CAMHB): 0.5 mg/L (≈ 0.345 µM)
Bactericidal activity (3-log10 decrease in CFU/mL below the starting inoculum maintained for 24 hours) [2]: not achieved
